Measurements as given in ChEMBL document CHEMBL1201862, “PubChem BioAssay data set” (2004).
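The compound was tested at five concentrations on cells cultured in 96-well plates, with a 48-hour exposure period. GI50 = concentration required for 50% inhibition of growth.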 Active and inactive are the calls of the source. Rule as the data show it: active = GI50 up to about 1.1 µM and inactive = higher.

Columns and labels:
Assay in all cases: NCI anticancer screen, dose series, 48 h
UACC-62 = system: UACC-62
EKVX = system: EKVX
K562 = system: K562
HOP-62 = system: HOP-62
ACHN = system: ACHN
SF-268 = system: SF-268
U-251 = system: U-251
IGROV-1 = system: IGROV-1
HOP-92 = system: HOP-92
MDA-MB-231 = system: MDA-MB-231
OVCAR-3 = system: OVCAR-3
RXF 393 = system: RXF 393
OVCAR-5 = system: OVCAR-5
DU-145 = system: DU-145
NCI-H522 = system: NCI-H522
SN12C = system: SN12C
T47D = system: T47D
MDA-N = system: MDA-N
NCI-H23 = system: NCI-H23
LXFL 529 = system: LXFL 529

Row | Structure (SMILES) | GI50 (UACC-62) | GI50 (EKVX) | GI50 (K562) | GI50 (HOP-62) | GI50 (ACHN) | GI50 (SF-268) | GI50 (U-251) | GI50 (IGROV-1) | GI50 (HOP-92) | GI50 (MDA-MB-231) | GI50 (OVCAR-3) | GI50 (RXF 393) | GI50 (OVCAR-5) | GI50 (DU-145) | GI50 (NCI-H522) | GI50 (SN12C) | GI50 (T47D) | GI50 (MDA-N) | GI50 (NCI-H23) | GI50 (LXFL 529)
1 | CCC1c2[nH]c3ccccc3c2C[C@H]2C(=O)NC(CCCCNC(=O)OC(C)(C)C)C(=O)N12 (stereo partly drawn) | 20.5 µM (inactive) | 42 µM (inactive) | 35.8 µM (inactive) | 35.4 µM (inactive) | 35.9 µM (inactive) | 45.1 µM (inactive) | 38.5 µM (inactive) | 36.1 µM (inactive) | 34 µM (inactive) | 32.7 µM (inactive) | 18.4 µM (inactive) | 30.5 µM (inactive) | 68.4 µM (inactive) | 48.4 µM (inactive) | 20.7 µM (inactive) | 27.5 µM (inactive) | 31 µM (inactive) | 20.7 µM (inactive) | 25.9 µM (inactive) | 
2 | Oc1c(Br)cc(CN(Cc2cc(Br)c(O)c(Br)c2)C2CCCCC2)cc1Br | > 100 µM (inactive) | > 100 µM (inactive) | > 100 µM (inactive) | > 100 µM (inactive) | > 100 µM (inactive) | > 100 µM (inactive) | > 100 µM (inactive) | > 100 µM (inactive) | > 100 µM (inactive) | > 100 µM (inactive) | > 100 µM (inactive) | > 100 µM (inactive) | > 100 µM (inactive) | > 100 µM (inactive) | > 100 µM (inactive) | > 100 µM (inactive) | > 100 µM (inactive) | > 100 µM (inactive) | > 100 µM (inactive) | 
3 | O=[N+]([O-])c1cccc(C2=NOC3C4CCC(C4)C23)c1 (stereo not drawn) |  |  |  | > 100 µM (inactive) | > 100 µM (inactive) | > 100 µM (inactive) | > 100 µM (inactive) | > 100 µM (inactive) | > 100 µM (inactive) |  | > 100 µM (inactive) |  | > 100 µM (inactive) |  | > 100 µM (inactive) | > 100 µM (inactive) |  |  | > 100 µM (inactive) | > 100 µM (inactive)
4 | COCCOCOC(CCCCO)c1cc(C)c(O[Si](C)(C)C(C)(C)C)c(C)c1 (stereo not drawn) | 12.2 µM (inactive) | 8.17 µM (inactive) | 3.22 µM (inactive) | 10.8 µM (inactive) | 7.62 µM (inactive) | 6.05 µM (inactive) | 10.8 µM (inactive) | 12.2 µM (inactive) |  |  | 5.83 µM (inactive) | 2.26 µM (inactive) | 13.7 µM (inactive) |  | 1.64 µM (inactive) | 2.69 µM (inactive) |  |  | 5.55 µM (inactive) | 10.4 µM (inactive)
5 | O=C(NCCCCCCNC(=O)c1cccc2ccccc12)Nc1cccc2ccccc12 | > 100 µM (inactive) | > 100 µM (inactive) | > 100 µM (inactive) | > 100 µM (inactive) | > 100 µM (inactive) | > 100 µM (inactive) | > 100 µM (inactive) | > 100 µM (inactive) | > 100 µM (inactive) | > 100 µM (inactive) | > 100 µM (inactive) | > 100 µM (inactive) | > 100 µM (inactive) | > 100 µM (inactive) | > 100 µM (inactive) | > 100 µM (inactive) | > 100 µM (inactive) | > 100 µM (inactive) | > 100 µM (inactive) | 
6 | Cc1cc(N(CCC#N)CCC#N)ccc1/C=C1N=C(/C=C/c2ccccc2)N(c2ccc(S(N)(=O)=O)cc2)C\1=O | > 100 µM (inactive) |  | > 100 µM (inactive) | > 100 µM (inactive) | > 100 µM (inactive) | > 100 µM (inactive) | > 100 µM (inactive) | > 100 µM (inactive) | > 100 µM (inactive) |  | > 100 µM (inactive) |  | > 100 µM (inactive) |  | > 100 µM (inactive) | > 100 µM (inactive) |  |  | > 100 µM (inactive) | > 100 µM (inactive)
7 | CC1(C)N=c2c(ncn2CCO)=C(C(N)=O)N1 | > 100 µM (inactive) | > 100 µM (inactive) | > 100 µM (inactive) | > 100 µM (inactive) | > 100 µM (inactive) | > 100 µM (inactive) | > 100 µM (inactive) | > 100 µM (inactive) | 26.2 µM (inactive) | > 100 µM (inactive) | > 100 µM (inactive) | > 100 µM (inactive) | > 100 µM (inactive) | > 100 µM (inactive) | > 100 µM (inactive) | > 100 µM (inactive) | > 100 µM (inactive) | > 100 µM (inactive) | > 100 µM (inactive) | 
8 | Cc1c(C(=O)/C=C/c2ccco2)[n+]([O-])c2ccccc2[n+]1[O-] | > 100 µM (inactive) | > 100 µM (inactive) | 56.4 µM (inactive) |  | > 100 µM (inactive) | > 100 µM (inactive) |  | > 100 µM (inactive) | 45.4 µM (inactive) |  | > 100 µM (inactive) | > 100 µM (inactive) | > 100 µM (inactive) |  | 58.9 µM (inactive) | > 100 µM (inactive) |  |  | > 100 µM (inactive) | > 100 µM (inactive)
9 | CC(=O)OCCOCCN1CCN(C2=C(Cl)C(=O)c3c(O)ccc(O)c3C2=O)CC1 | 1.38 µM (inactive) | 1.67 µM (inactive) | 0.264 µM (active) | 3.04 µM (inactive) | 0.286 µM (active) | 1.86 µM (inactive) | 2.13 µM (inactive) | 1.55 µM (inactive) | 0.294 µM (active) | 0.397 µM (active) | 0.723 µM (active) | 0.69 µM (active) | 1.59 µM (inactive) | 1.88 µM (inactive) | 0.265 µM (active) | 0.767 µM (active) | 0.652 µM (active) | 0.497 µM (active) | 0.684 µM (active) | 
10 | COc1ccc(C(=O)Cc2c(C(=O)c3ccccc3)c3ccccc3n2C(=O)c2ccccc2)cc1 | 94 µM (inactive) |  | 51.3 µM (inactive) | > 100 µM (inactive) | 53 µM (inactive) | > 100 µM (inactive) | 78.2 µM (inactive) | > 100 µM (inactive) | 25.2 µM (inactive) |  | 37.7 µM (inactive) |  | > 100 µM (inactive) |  | 47.1 µM (inactive) |  |  |  | 50.2 µM (inactive) | 67.6 µM (inactive)
11 | COC(=O)CCC(NC(=S)N/N=C(\C)c1cnc2ccccc2n1)C(=O)OC (stereo not drawn) | 16.9 µM (inactive) | 12.6 µM (inactive) | 10.1 µM (inactive) | 45.7 µM (inactive) | 20.6 µM (inactive) | 29.7 µM (inactive) | 43.2 µM (inactive) | 35.4 µM (inactive) |  |  | 42.8 µM (inactive) | 30.2 µM (inactive) | 16.3 µM (inactive) |  | 11.2 µM (inactive) | 60.1 µM (inactive) |  |  | 58.3 µM (inactive) | 29.9 µM (inactive)
12 | CC(=C(C(N)=O)C(N)=O)C1C=C(c2cccs2)CC(c2ccc(Cl)cc2)=C1O (stereo not drawn) | 25.1 µM (inactive) | > 100 µM (inactive) | 25 µM (inactive) | > 100 µM (inactive) | 52.5 µM (inactive) | > 100 µM (inactive) | 35.6 µM (inactive) | 35 µM (inactive) | 85.9 µM (inactive) | > 100 µM (inactive) | 22.3 µM (inactive) | > 100 µM (inactive) | > 100 µM (inactive) | 63.5 µM (inactive) | 30.3 µM (inactive) | 32 µM (inactive) | 9.84 µM (inactive) | 35.1 µM (inactive) | > 100 µM (inactive) | 
13 | CN(NC(=O)c1ccco1)C1=NCCN1 | > 100 µM (inactive) | > 100 µM (inactive) | > 100 µM (inactive) | > 100 µM (inactive) | > 100 µM (inactive) | > 100 µM (inactive) | > 100 µM (inactive) | > 100 µM (inactive) | > 100 µM (inactive) | > 100 µM (inactive) | > 100 µM (inactive) | > 100 µM (inactive) | > 100 µM (inactive) | > 100 µM (inactive) | > 100 µM (inactive) | > 100 µM (inactive) | > 100 µM (inactive) | > 100 µM (inactive) | > 100 µM (inactive) | 
14 | CC(C)(C)OC(=O)N1C(C2=COc3ccccc3O2)=COc2cccnc21 | 1.58 µM (inactive) | 1.38 µM (inactive) | 1.99 µM (inactive) | 1.85 µM (inactive) | 1.65 µM (inactive) | 1.5 µM (inactive) | 1.73 µM (inactive) | 1.62 µM (inactive) | 1.25 µM (inactive) | 1.81 µM (inactive) | 1.72 µM (inactive) | 1.62 µM (inactive) | 1.65 µM (inactive) | 1.33 µM (inactive) | 1.61 µM (inactive) | 1.71 µM (inactive) | 1.42 µM (inactive) | 1.99 µM (inactive) | 1.61 µM (inactive) | 
15 | O=C1CCc2ccccc2O1 [DIHYDROCOUMARIN] | > 100 µM (inactive) | > 100 µM (inactive) | > 100 µM (inactive) | > 100 µM (inactive) | > 100 µM (inactive) | > 100 µM (inactive) | > 100 µM (inactive) | > 100 µM (inactive) | > 100 µM (inactive) | > 100 µM (inactive) | > 100 µM (inactive) | > 100 µM (inactive) | > 100 µM (inactive) | > 100 µM (inactive) | > 100 µM (inactive) | > 100 µM (inactive) | > 100 µM (inactive) | 53.1 µM (inactive) | > 100 µM (inactive) | 
16 | CC1=CC(=O)c2ccccc2C1=O [MENADIONE] | 4.67 µM (inactive) | 17.2 µM (inactive) | 2.38 µM (inactive) | 16.1 µM (inactive) | 3.36 µM (inactive) | 7.52 µM (inactive) | 13.4 µM (inactive) | 15.7 µM (inactive) | 1.55 µM (inactive) | 5.06 µM (inactive) | 11.1 µM (inactive) | 13.4 µM (inactive) | 11.8 µM (inactive) | 15.9 µM (inactive) | 5.06 µM (inactive) | 12.4 µM (inactive) | 2.01 µM (inactive) | 0.91 µM (active) | 7.06 µM (inactive) | 
